The text below walks through data of patent US10494363B2, “Non-steroidal glucocorticoid receptor modulators for local drug delivery” (LEO PHARMA A/S, priority 2015, dated 2019).

In data set [1] the test system is TNF alpha release from human PBMCs. In words: Inhibition of TNF alpha release from human PBMCs. Particulars: PBMC, LPS 1 μg/ml, 18 hours, AlphaLISA. Type of data set: cell-based. On the procedure:
PBMC were isolated from fresh buffy coats by density centrifugation using lymphoprep (Medinor AB, cat no 1019818) tubes. Isolated PBMCs were washed in assay medium (RPMI1640 with 25 mM HEPES, 1% pen/strep, 200 mM L glutamine and 10% Foetal calf serum). Surplus PBMCs were frozen in medium containing extra 10% foetal calf serum and 5% DMSO. On the assay day, fresh cells or cryopreserved cells after thawing were washed in serum free medium (RPMI1640 with 25 mM HEPES, 1% pen/strep, 200 mM L glutamine and 0.5% human serum albumin) and counted, in order to determine the fraction of living cells (generally >95%).
Test compounds were diluted in DMSO over seven orders of magnitude, further diluted in serum-free medium and distributed into wells of 384 well tissue culture plates. LPS was added to a final concentration of 1 μg/ml to the cells. Immediately thereafter titrated test compounds were added and incubated for 18 hours at 37° C.
The level of TNF-a in the culture supernatant was quantitated by AlphaLISA (Perkin Elmer). 2-(3,5-dichloro-4-pyridinyl)-1-(7-methoxyspiro[1,3-benzodioxole-2,1′-cyclopentan]-4-yl)-ethanone (CAS 185406-34-2) at 100×IC50 was used to define the assay window.
Data were processed by sigmoidal curve fitting. EC50 and Emax were determined from the curve fits.
(In general: In Alpha technology, singlet oxygen from a donor bead excites a nearby acceptor bead.)

Data set [2] in a line: Human liver microsomes (HLM) assay. In kind it is in vitro ADME. Particulars: hepatic extraction ratio; 0.5 μM compound, 0.5 mg/mL microsomes, NADPH, 37° C. The method, then:
Incubations of test compounds in DMSO, diluted with phosphate buffer, pH 7.4, at 0.5 μM were carried out with human liver microsomes (0.5 mg/mL). The percentage of organic solvent in the incubations was 1%. The human liver microsomal suspension in phosphate buffer was mixed with NADPH (1 mM) and preheated to 37° C. before test compound was added. Aliquots were taken at 0, 5, 10, 20 and 30 minutes, and reactions were terminated by addition of methanol containing analytical internal standard (IS).
The results were expressed as apparent clearance (Clapp) (mL/min/kg) and hepatic extraction ratio (Eh) (%) calculated from the rate constant (k) (min^−1) of test compound depletion.
(Liver microsomes are a subcellular fraction often used to study metabolism.)

In data set [3] the target is T1, glucocorticoid receptor (GR), recombinant full-length receptor protein (Homo sapiens, UniProt P04150).
T1 construct: 4 nM recombinant, full-length receptor protein was incubated with increasing concentrations of GR ligand; purchased Life Technologies A-15897
T1 sequence (P04150 1-777): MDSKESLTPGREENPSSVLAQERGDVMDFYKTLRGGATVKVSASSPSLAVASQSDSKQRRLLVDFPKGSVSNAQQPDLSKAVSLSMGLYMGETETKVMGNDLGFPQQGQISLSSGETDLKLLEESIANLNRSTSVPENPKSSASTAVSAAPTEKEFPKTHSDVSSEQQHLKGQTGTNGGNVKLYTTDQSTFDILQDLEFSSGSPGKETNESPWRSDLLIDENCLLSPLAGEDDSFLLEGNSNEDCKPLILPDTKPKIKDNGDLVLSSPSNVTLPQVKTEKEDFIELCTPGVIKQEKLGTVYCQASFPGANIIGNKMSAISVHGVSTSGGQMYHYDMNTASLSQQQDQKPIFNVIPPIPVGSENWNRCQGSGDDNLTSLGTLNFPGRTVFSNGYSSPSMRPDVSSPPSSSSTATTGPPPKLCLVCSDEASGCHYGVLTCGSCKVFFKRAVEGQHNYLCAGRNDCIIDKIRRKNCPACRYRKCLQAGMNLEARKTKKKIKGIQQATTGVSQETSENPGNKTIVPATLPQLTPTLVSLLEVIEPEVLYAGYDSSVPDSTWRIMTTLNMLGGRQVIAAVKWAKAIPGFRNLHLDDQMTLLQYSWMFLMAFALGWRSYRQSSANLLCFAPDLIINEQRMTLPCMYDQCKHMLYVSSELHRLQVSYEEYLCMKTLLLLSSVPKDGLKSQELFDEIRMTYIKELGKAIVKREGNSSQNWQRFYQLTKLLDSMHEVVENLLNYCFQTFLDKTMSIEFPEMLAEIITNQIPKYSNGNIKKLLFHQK
The data set can be described thus: Glucocorticoid receptor binding assay (fluorescence polarization kit). Particulars: 4 nM receptor, 2.5 nM Fluormone GS1 tracer, 2h room temperature, read-out: GR binding ABS IC50. The method, then: Test compounds were diluted in DMSO over seven orders of magnitude, further diluted in assay buffer and distributed into 384-well plates. The sensitivity limit of this assay was 2-4 nM.
Data were processed by sigmoidal curve fitting.
Absolute (Abs) IC50 and Emax were determined from the curve fits.
On the technique in general: In fluorescence polarisation assays a small probe gives low polarisation when free and higher when bound to something large.

Take `Cc1ccc([C@@H](Oc2ccc(C(=O)N[C@H]3CCCN(C(=O)[C@H]4COC(=O)C4)C3)nc2)[C@H](C)NC(=O)C(F)(F)F)cc1` [Compound 1, N-[(3S)-1-[(3R)-5-oxotetrahydrofuran-3-carbonyl]-3-piperidyl]-5-[(1R,2S)-1-(p-tolyl)-2-[(2,2,2-trifluoroacetyl)amino]propoxy]pyridine-2-carboxamide]: the concentration for a half-maximal effect (EC50) (usually the midpoint of the concentration-response curve) in data set [1] was less than 100 nM. Besides, the “HLM assay Eh (%)” value in data set [2] was “* (extraction ratio (Eh)>90%)”.
For `C[C@H](NC(=O)C(F)(F)F)[C@H](Oc1ccc(C(=O)N[C@H]2CCCN(C(=O)[C@H]3COC(=O)C3)C2)nc1)c1ccc(C2CC2)cc1` [Compound 2, 5-[(1R,2S)-1-(4-cyclopropylphenyl)-2-[(2,2,2-trifluoroacetyl)amino]propoxy]-N-[(3S)-1-[(3R)-5-oxotetrahydrofuran-3-carbonyl]-3-piperidyl]pyridine-2-carboxamide], the EC50 in data set [1] is less than 100 nM. The half-inhibitory concentration (IC50) (commonly the midpoint of a concentration-inhibition curve) in data set [3] is less than 100 nM. Further, in data set [2], the “HLM assay Eh (%)” value is “* (extraction ratio (Eh)>90%)”.
Compound `C[C@H](NC(=O)C(C)(F)F)[C@H](Oc1ccc(C(=O)N[C@H]2CCCN(C(=O)[C@H]3COC(=O)C3)C2)nc1)c1ccc(C2CC2)cc1` [Compound 3, 5-[(1R,2S)-1-(4-cyclopropylphenyl)-2-(2,2-difluoropropanoylamino)propoxy]-N-[(3S)-1-[(3R)-5-oxotetrahydrofuran-3-carbonyl]-3-piperidyl]pyridine-2-carboxamide] came in with an EC50 in data set [1] of less than 100 nM. In addition, in data set [3], the IC50 is less than 100 nM. In data set [2], the “HLM assay Eh (%)” value is reported as “* (extraction ratio (Eh)>90%)”.
In data set [1], `C[C@H](NC(=O)c1ccsn1)[C@H](Oc1ccc(C(=O)N[C@H]2CCCN(C(=O)[C@H]3COC(=O)C3)C2)nc1)c1ccc(C2CC2)cc1` [Compound 4, N-[(1S,2R)-2-(4-cyclopropylphenyl)-1-methyl-2-[[6-[[(3S)-1-[(3R)-5-oxotetrahydrofuran-3-carbonyl]-3-piperidyl]carbamoyl]-3-pyridyl]oxy]ethyl]isothiazole-3-carboxamide] showed a 50% effective concentration (EC50) of less than 100 nM. Besides, the IC50 in data set [3] was less than 100 nM. For the same compound, the “HLM assay Eh (%)” value in data set [2] is “* (extraction ratio (Eh)>90%)”.
In data set [1], `C[C@H](NC(=O)c1ccns1)[C@H](Oc1ccc(C(=O)N[C@H]2CCCN(C(=O)[C@H]3COC(=O)C3)C2)nc1)c1ccc(C2CC2)cc1` [Compound 5, N-[(1S,2R)-2-(4-cyclopropylphenyl)-1-methyl-2-[[6-[[(3S)-1-[(3R)-5-oxotetrahydrofuran-3-carbonyl]-3-piperidyl]carbamoyl]-3-pyridyl]oxy]ethyl]isothiazole-5-carboxamide] gave a half-maximal effective concentration (EC50) of less than 100 nM. Also, in data set [3], the IC50 was less than 100 nM. In addition, in data set [2], the “HLM assay Eh (%)” value is given as “* (extraction ratio (Eh)>90%)”.
In data set [1], `C[C@H](NC(=O)c1ncco1)[C@H](Oc1ccc(C(=O)N[C@H]2CCCN(C(=O)[C@H]3COC(=O)C3)C2)nc1)c1ccc(C2CC2)cc1` [Compound 6, N-[(1S,2R)-2-(4-cyclopropylphenyl)-1-methyl-2-[[6-[[(3S)-1-[(3R)-5-oxotetrahydrofuran-3-carbonyl]-3-piperidyl]carbamoyl]-3-pyridyl]oxy]ethyl]oxazole-2-carboxamide] yielded a concentration giving a half-maximal response (EC50) of less than 100 nM. The concentration for half-maximal inhibition (IC50) in data set [3] is less than 100 nM. Also, the “HLM assay Eh (%)” value in data set [2] is listed as “* (extraction ratio (Eh)>90%)”.
`Cc1ccc([C@@H](Oc2ccc(C(=O)N[C@@H]3CCCN(C(=O)[C@H]4COC(=O)C4)C3)nc2)[C@H](C)NC(=O)C(F)(F)F)cc1` [Compound 59, N-[(3R)-1-[(3R)-5-oxotetrahydrofuran-3-carbonyl]-3-piperidyl]-5-[(1R,2S)-1-(p-tolyl)-2-[(2,2,2-trifluoroacetyl)amino]propoxy]pyridine-2-carboxamide]: in data set [1], the half-maximal effective concentration (EC50) was less than 100 nM. Also, the “HLM assay Eh (%)” value in data set [2] is given as “** (50%<extraction ratio (Eh)<90%)”.
Compound `Cc1ccc([C@@H](Oc2ccc(C(=O)N[C@H]3CCCN(C(=O)N[C@@H]4COC(=O)C4)C3)nc2)[C@H](C)NC(=O)C(F)(F)F)cc1` [Compound 71, N-[(3S)-1-[[(3S)-5-oxotetrahydrofuran-3-yl]carbamoyl]-3-piperidyl]-5-[(1R,2S)-1-(p-tolyl)-2-[(2,2,2-trifluoroacetyl)amino]propoxy]pyridine-2-carboxamide] had an EC50 in data set [1] of less than 100 nM. Moreover, the IC50 in data set [3] was less than 100 nM.
Regarding `Cc1ccc([C@@H](Oc2ccc(C(=O)N[C@H]3CCCN(C(=O)N[C@H]4COC(=O)C4)C3)nc2)[C@H](C)NC(=O)C(F)(F)F)cc1` [Compound 72, N-[(3S)-1-[[(3R)-5-oxotetrahydrofuran-3-yl]carbamoyl]-3-piperidyl]-5-[(1R,2S)-1-(p-tolyl)-2-[(2,2,2-trifluoroacetyl)amino]propoxy]pyridine-2-carboxamide], the EC50 in data set [1] was in the range of 100 to 300 nM. Further, in data set [3], the IC50 was less than 100 nM.
In the same order, the values of `Cc1ccc([C@@H](Oc2ccc(C(=O)N[C@H]3CCCN(C(=O)O[C@@H]4CCOC4=O)C3)nc2)[C@H](C)NC(=O)C(F)(F)F)cc1` [Compound 74, [(3R)-2-oxotetrahydrofuran-3-yl] (3S)-3-[[5-[(1R,2S)-1-(p-tolyl)-2-[(2,2,2-trifluoroacetyl)amino]propoxy]pyridine-2-carbonyl]amino]piperidine-1-carboxylate] are less than 100 nM and less than 100 nM.
In the same order, the values of `Cc1ccc([C@@H](Oc2ccc(C(=O)N[C@H]3CCCN(C(=O)O[C@@H]4COC(=O)C4)C3)nc2)[C@H](C)NC(=O)C(F)(F)F)cc1` [Compound 75, [(3S)-5-oxotetrahydrofuran-3-yl] (3S)-3-[[5-[(1R,2S)-1-(p-tolyl)-2-[(2,2,2-trifluoroacetyl)amino]propoxy]pyridine-2-carbonyl]amino]piperidine-1-carboxylate] are 100 to 300 nM and less than 100 nM.
In the same order, the values of `Cc1ccc([C@@H](Oc2ccc(C(=O)N[C@H]3CCCN(C(=O)O[C@H]4COC(=O)C4)C3)nc2)[C@H](C)NC(=O)C(F)(F)F)cc1` [Compound 76, [(34)-5-oxotetrahydrofuran-3-yl] (3S)-3-[[5-[(1R,2S)-1-(p-tolyl)-2-[(2,2,2-trifluoroacetyl)amino]propoxy]pyridine-2-carbonyl]amino]piperidine-1-carboxylate] are 100 to 300 nM and less than 100 nM.
In the case of `C[C@H](NC(=O)[C@H]1CCCO1)[C@H](Oc1ccc(C(=O)O[C@H]2CCCN(C(=O)[C@@H]3COC(=O)C3)C2)cc1)c1ccc(C2CC2)cc1` [Compound 77, [(3S)-1-[(3S)-5-oxotetrahydrofuran-3-carbonyl]-3-piperidyl] 4-[(1R,2S)-1-(4-cyclopropylphenyl)-2-[[(2R)-tetrahydrofuran-2-carbonyl]amino]propoxy]benzoate], in data set [1], the EC50 is less than 100 nM. In addition, the IC50 in data set [3] is less than 100 nM.
In data set [1], `C[C@H](NC(=O)[C@@H]1CCCO1)[C@H](Oc1ccc(C(=O)O[C@H]2CCCN(C(=O)[C@H]3COC(=O)C3)C2)cc1)c1ccc(C2CC2)cc1` [Compound 78, [(3S)-1-[(3R)-5-oxotetrahydrofuran-3-carbonyl]-3-piperidyl] 4-[(1R,2S)-1-(4-cyclopropylphenyl)-2-[[(2S)-tetra hydrofuran-2-carbonyl]amino]propoxy]benzoate] displayed a 50% effective concentration (EC50) of less than 100 nM. The half-inhibitory concentration (IC50) in data set [3] was less than 100 nM.
